≈ marks a conversion by molar mass, not a printed value.
How the values were obtained:
Type in all cases: functional
[1] = system: Elizabethkingia meningoseptica; assay: Antibacterial activity against Elizabethkingia meningoseptica ATCC 13253 after 16 to 18 hr by broth microdilution method
Klebsiella pneumoniae = assay: Antibacterial activity against Klebsiella pneumoniae ATCC 700603 after 16 to 18 hr by broth microdilution method
Klebsiella oxytoca = assay: Antibacterial activity against Klebsiella oxytoca ATCC 13182 after 16 to 18 hr by broth microdilution method
Escherichia coli = assay: Antibacterial activity against Escherichia coli ATCC 35218 after 16 to 18 hr by broth microdilution method
Staphylococcus aureus = assay: Antibacterial activity against Staphylococcus aureus ATCC 43300 after 16 to 18 hr by broth microdilution method
Staphylococcus xylosus = assay: Antibacterial activity against Staphylococcus xylosus ATCC 35033 after 16 to 18 hr by broth microdilution method
Prescottella equi = assay: Antibacterial activity against Rhodococcus equi ATCC 6939 after 16 to 18 hr by broth microdilution method; conditions: Rhodococcus (subgen. Prescottella) equi
Bacillus subtilis = assay: Antibacterial activity against Bacillus subtilis ATCC 6051 after 16 to 18 hr by broth microdilution method
Aspergillus flavus [2] = assay: Antifungal activity against Aspergillus flavus MRC 2527 after 24 hr by broth microdilution method; conditions: MRC 2527, 24 h
Penicillium sp. = assay: Antifungal activity against Penicillium sp. after 24 hr by broth microdilution method
Rhizomucor = assay: Antifungal activity against Rhizomucor spp. after 24 hr by broth microdilution method
Scopulariopsis = assay: Antifungal activity against Scopulariopsis spp. after 24 hr by broth microdilution method
Sporothrix schenckii = assay: Antifungal activity against Sporothrix schenckii after 24 hr by broth microdilution method
Aspergillus flavus [3] = assay: Antifungal activity against Aspergillus flavus after 24 hr by broth microdilution method
Fusarium sp. = assay: Antifungal activity against Fusarium sp. after 24 hr by broth microdilution method
Aspergillus fumigatus = assay: Antifungal activity against Aspergillus fumigatus after 24 hr by broth microdilution method
Candida parapsilosis [4] = assay: Antifungal activity against fluconazole-resistant Candida parapsilosis after 24 hr by broth microdilution method; conditions: Lodderomyces parapsilosis
Pichia kudriavzevii [5] = assay: Antifungal activity against fluconazole-resistant Pichia kudriavzevii after 24 hr by broth microdilution method
Candida albicans [6] = assay: Antifungal activity against Candida albicans ATCC 90028 after 24 hr by broth microdilution method; conditions: ATCC 90028, 24 h
Trichosporon asahii = assay: Antifungal activity against Trichosporon asahii after 24 hr by broth microdilution method
Candida parapsilosis [7] = assay: Antifungal activity against Candida parapsilosis ATCC 22019 after 24 hr by broth microdilution method; conditions: Lodderomyces parapsilosis, ATCC 22019, 24 h
Candida tropicalis = assay: Antifungal activity against Candida tropicalis after 24 hr by broth microdilution method
Pichia kudriavzevii [8] = assay: Antifungal activity against Pichia kudriavzevii after 24 hr by broth microdilution method
Cyberlindnera jadinii = assay: Antifungal activity against Cyberlindnera jadinii after 24 hr by broth microdilution method; conditions: Williopsis jadinii
Candida albicans [9] = assay: Antifungal activity against fluconazole-susceptible Candida albicans
Candida albicans [10] = assay: Antifungal activity against fluconazole-resistant Candida albicans

## CC(C)CCCC(C)CCCC(C)CCNCCNC1C2CC3CC(C2)CC1C3.Cl (stereo not drawn)
[1]
  MIC: 7.8 µg/mL
Klebsiella pneumoniae
  MIC: 250 µg/mL
Klebsiella oxytoca
  MIC: 31.2 µg/mL
Escherichia coli
  MIC: 7.8 µg/mL
Staphylococcus aureus
  MIC: 7.8 µg/mL
Staphylococcus xylosus
  MIC: 3.9 µg/mL
Prescottella equi
  MIC: 3.9 µg/mL
Bacillus subtilis
  MIC: 3.9 µg/mL
Aspergillus flavus [2]
  MIC: > 100 µg/mL
Penicillium sp.
  MIC: 6.25 µg/mL
Rhizomucor
  MIC: 12.5 µg/mL
Scopulariopsis
  MIC: 3.13 µg/mL
Sporothrix schenckii
  MIC: 1.56 µg/mL
Aspergillus flavus [3]
  MIC: 25 µg/mL
Fusarium sp.
  MIC: 12.5 µg/mL
Aspergillus fumigatus
  MIC: 12.5 µg/mL
Candida parapsilosis [4]
  MIC: 6.25 µg/mL
Pichia kudriavzevii [5]
  MIC: 3.13 µg/mL
Candida albicans [6]
  MIC: 6.25 µg/mL
Trichosporon asahii
  MIC: 6.25 µg/mL
Candida parapsilosis [7]
  MIC: 6.25 µg/mL
Candida tropicalis
  MIC: 6.25 µg/mL
Pichia kudriavzevii [8]
  MIC: 6.25 µg/mL
Cyberlindnera jadinii
  MIC: 3.13 µg/mL

## CC(C)=CCC/C(C)=C/CC/C(C)=C/CNCCNC1C2CC3CC(C2)CC1C3.Cl (stereo not drawn)
[1]
  MIC: 15.6 µg/mL
Klebsiella pneumoniae
  MIC: 125 µg/mL
Klebsiella oxytoca
  MIC: 15.6 µg/mL
Escherichia coli
  MIC: 7.8 µg/mL
Staphylococcus aureus
  MIC: 15.6 µg/mL
Staphylococcus xylosus
  MIC: 7.8 µg/mL
Prescottella equi
  MIC: 7.8 µg/mL
Bacillus subtilis
  MIC: 7.8 µg/mL
Aspergillus flavus [2]
  MIC: 25 µg/mL
Penicillium sp.
  MIC: 3.9 µg/mL
Rhizomucor
  MIC: 7.8 µg/mL
Scopulariopsis
  MIC: 3.9 µg/mL
Sporothrix schenckii
  MIC: 0.98 µg/mL
Aspergillus flavus [3]
  MIC: 15.6 µg/mL
Fusarium sp.
  MIC: 7.8 µg/mL
Aspergillus fumigatus
  MIC: 7.8 µg/mL
Candida parapsilosis [4]
  MIC: 3.9 µg/mL
Pichia kudriavzevii [5]
  MIC: 1.95 µg/mL
Candida albicans [6]
  MIC: 7.8 µg/mL
Trichosporon asahii
  MIC: 3.9 µg/mL
Candida parapsilosis [7]
  MIC: 7.8 µg/mL
Candida tropicalis
  MIC: 3.9 µg/mL
Pichia kudriavzevii [8]
  MIC: 3.9 µg/mL
Cyberlindnera jadinii
  MIC: 1.95 µg/mL

## C[C@@H]1[C@H](O)[C@@H](C)/C=C/C=C/C=C/C=C/C=C/C=C/C=C/[C@H](O[C@@H]2O[C@H](C)[C@@H](O)[C@H](N)[C@@H]2O)C[C@@H]2O[C@](O)(C[C@@H](O)C[C@@H](O)[C@H](O)CC[C@@H](O)C[C@@H](O)CC(=O)O[C@H]1C)C[C@H](O)[C@H]2C(=O)O [AMPHOTERICIN B]
Rhizomucor
  MIC: 0.31 µg/mL (≈ 0.335 µM)
Scopulariopsis
  MIC: 10 µg/mL (≈ 10.8 µM)
Sporothrix schenckii
  MIC: 5 µg/mL (≈ 5.41 µM)
Fusarium sp.
  MIC: 2.5 µg/mL (≈ 2.71 µM)
Candida parapsilosis [4]
  MIC: 0.02 µg/mL (≈ 0.0216 µM)
Candida albicans [6]
  MIC: 0.62 µg/mL (≈ 0.671 µM)
Trichosporon asahii
  MIC: 0.31 µg/mL (≈ 0.335 µM)
Candida parapsilosis [7]
  MIC: 0.04 µg/mL (≈ 0.0433 µM)
Cyberlindnera jadinii
  MIC: 0.31 µg/mL (≈ 0.335 µM)

## CC(C)CCCC(C)CCNCCNC1C2CC3CC(C2)CC1C3.Cl (stereo not drawn)
[1]
  MIC: 31.2 µg/mL
Klebsiella pneumoniae
  MIC: 125 µg/mL
Klebsiella oxytoca
  MIC: 62.5 µg/mL
Escherichia coli
  MIC: 31.2 µg/mL
Staphylococcus aureus
  MIC: 31.2 µg/mL
Staphylococcus xylosus
  MIC: 15.6 µg/mL
Prescottella equi
  MIC: 7.8 µg/mL
Bacillus subtilis
  MIC: 15.6 µg/mL
Aspergillus flavus [2]
  MIC: 25 µg/mL
Penicillium sp.
  MIC: 3.9 µg/mL
Rhizomucor
  MIC: 7.8 µg/mL
Scopulariopsis
  MIC: 1.95 µg/mL
Sporothrix schenckii
  MIC: 0.49 µg/mL
Aspergillus flavus [3]
  MIC: 31.2 µg/mL
Fusarium sp.
  MIC: 7.8 µg/mL
Aspergillus fumigatus
  MIC: 7.8 µg/mL
Candida parapsilosis [4]
  MIC: 7.8 µg/mL
Pichia kudriavzevii [5]
  MIC: 0.98 µg/mL
Candida albicans [6]
  MIC: 3.9 µg/mL
Trichosporon asahii
  MIC: 7.8 µg/mL
Candida parapsilosis [7]
  MIC: 7.8 µg/mL
Candida tropicalis
  MIC: 7.8 µg/mL
Pichia kudriavzevii [8]
  MIC: 7.8 µg/mL
Cyberlindnera jadinii
  MIC: 1.95 µg/mL

## CC(C)=CCC/C(C)=C/CNCCNC12CC3CC(CC(C3)C1)C2.Cl
[1]
  MIC: 500 µg/mL
Klebsiella pneumoniae
  MIC: 1000 µg/mL
Klebsiella oxytoca
  MIC: 500 µg/mL
Escherichia coli
  MIC: 500 µg/mL
Staphylococcus aureus
  MIC: 500 µg/mL
Staphylococcus xylosus
  MIC: 250 µg/mL
Prescottella equi
  MIC: 125 µg/mL
Bacillus subtilis
  MIC: 125 µg/mL
Aspergillus flavus [2]
  MIC: > 100 µg/mL
Penicillium sp.
  MIC: 62.5 µg/mL
Rhizomucor
  MIC: 125 µg/mL
Scopulariopsis
  MIC: 125 µg/mL
Sporothrix schenckii
  MIC: 3.9 µg/mL
Aspergillus flavus [3]
  MIC: > 500 µg/mL
Fusarium sp.
  MIC: 250 µg/mL
Aspergillus fumigatus
  MIC: 125 µg/mL
Candida parapsilosis [4]
  MIC: 125 µg/mL
Pichia kudriavzevii [5]
  MIC: 15.6 µg/mL
Candida albicans [6]
  MIC: 31.2 µg/mL
Trichosporon asahii
  MIC: 125 µg/mL
Candida parapsilosis [7]
  MIC: 250 µg/mL
Candida tropicalis
  MIC: 62.5 µg/mL
Pichia kudriavzevii [8]
  MIC: 125 µg/mL
Cyberlindnera jadinii
  MIC: 31.2 µg/mL

## NC[C@@H]1O[C@H](O[C@H]2[C@@H](O)[C@H](O[C@@H]3[C@@H](O)[C@H](N)C[C@H](N)[C@H]3O[C@H]3O[C@H](CN)[C@@H](O)[C@H](O)[C@H]3N)O[C@@H]2CO)[C@H](N)[C@@H](O)[C@@H]1O [FRAMYCETIN]
[1]
  MIC: 12.5 µg/mL (≈ 20.3 µM)
Klebsiella pneumoniae
  MIC: 6.25 µg/mL (≈ 10.2 µM)
Klebsiella oxytoca
  MIC: 6.25 µg/mL (≈ 10.2 µM)
Escherichia coli
  MIC: 3.13 µg/mL (≈ 5.09 µM)
Staphylococcus aureus
  MIC: 25 µg/mL (≈ 40.7 µM)
Staphylococcus xylosus
  MIC: 0.2 µg/mL (≈ 0.325 µM)
Prescottella equi
  MIC: 1.56 µg/mL (≈ 2.54 µM)
Bacillus subtilis
  MIC: 0.78 µg/mL (≈ 1.27 µM)

## CC(C)CCCC(C)CCNCCNC12CC3CC(CC(C3)C1)C2.Cl (stereo not drawn)
[1]
  MIC: 31.2 µg/mL
Klebsiella pneumoniae
  MIC: 62.5 µg/mL
Klebsiella oxytoca
  MIC: 62.5 µg/mL
Escherichia coli
  MIC: 31.2 µg/mL
Staphylococcus aureus
  MIC: 62.5 µg/mL
Staphylococcus xylosus
  MIC: 15.6 µg/mL
Prescottella equi
  MIC: 15.6 µg/mL
Bacillus subtilis
  MIC: 15.6 µg/mL
Aspergillus flavus [2]
  MIC: 25 µg/mL
Penicillium sp.
  MIC: 7.8 µg/mL
Rhizomucor
  MIC: 7.8 µg/mL
Scopulariopsis
  MIC: 1.95 µg/mL
Sporothrix schenckii
  MIC: 0.49 µg/mL
Aspergillus flavus [3]
  MIC: 31.2 µg/mL
Fusarium sp.
  MIC: 7.8 µg/mL
Aspergillus fumigatus
  MIC: 15.6 µg/mL
Candida parapsilosis [4]
  MIC: 7.8 µg/mL
Pichia kudriavzevii [5]
  MIC: 0.98 µg/mL
Candida albicans [6]
  MIC: 3.9 µg/mL
Trichosporon asahii
  MIC: 7.8 µg/mL
Candida parapsilosis [7]
  MIC: 15.6 µg/mL
Candida tropicalis
  MIC: 3.9 µg/mL
Pichia kudriavzevii [8]
  MIC: 15.6 µg/mL
Cyberlindnera jadinii
  MIC: 1.95 µg/mL

## CC(C)=CCC/C(C)=C/CNCCNC1C2CC3CC(C2)CC1C3.Cl (stereo not drawn)
[1]
  MIC: 500 µg/mL
Klebsiella pneumoniae
  MIC: 1000 µg/mL
Klebsiella oxytoca
  MIC: 500 µg/mL
Escherichia coli
  MIC: 500 µg/mL
Staphylococcus aureus
  MIC: 1000 µg/mL
Staphylococcus xylosus
  MIC: 500 µg/mL
Prescottella equi
  MIC: 125 µg/mL
Bacillus subtilis
  MIC: 500 µg/mL
Aspergillus flavus [2]
  MIC: > 100 µg/mL
Penicillium sp.
  MIC: 125 µg/mL
Rhizomucor
  MIC: 125 µg/mL
Scopulariopsis
  MIC: 62.5 µg/mL
Sporothrix schenckii
  MIC: 1.95 µg/mL
Aspergillus flavus [3]
  MIC: 500 µg/mL
Fusarium sp.
  MIC: 125 µg/mL
Aspergillus fumigatus
  MIC: 250 µg/mL
Candida parapsilosis [4]
  MIC: 250 µg/mL
Pichia kudriavzevii [5]
  MIC: 15.6 µg/mL
Candida albicans [6]
  MIC: 125 µg/mL
Trichosporon asahii
  MIC: 125 µg/mL
Candida parapsilosis [7]
  MIC: 250 µg/mL
Candida tropicalis
  MIC: 32.5 µg/mL
Pichia kudriavzevii [8]
  MIC: 250 µg/mL
Cyberlindnera jadinii
  MIC: 15.6 µg/mL
Candida albicans [9]
  MIC: 4 µg/mL
Candida albicans [10]
  MIC: 4 µg/mL

From ChEMBL document CHEMBL3046423, “SQ109 analogues as potential antimicrobial candidates” (2011)
